The record followed here is PubChem BioAssay (NCI).

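Tested at 5 concentrations; 48 h exposure; 96-well plates; endpoints linearly interpolated, else capped at highest concentration. GI50 marks 50% less growth. TGI marks complete inhibition of growth.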

For the first assay, the system named is SF-539 CNS. The experiment in a line: NCI-60 cell line screen, 48 h.
Consider `NS(=O)(=O)c1cc2c(cc1Cl)NC(C(=O)c1cc(=O)c3ccc(O)cc3o1)=NS2(=O)=O`, for which the TGI is > 100 µM.

As for `CC(=O)OCC(=O)[C@@]1(O)CC[C@H]2[C@@H]3CCC4=CC(=O)[C@H](C)C[C@]4(C)[C@H]3[C@@H](O)C[C@@]21C`, the TGI is > 100 µM.

With `O=C(NO)c1ccc([N+](=O)[O-])cc1`, the TGI is > 100 µM.

For the molecule `Cc1c(C#N)c2nnn(C)c(=O)n2c1-c1ccccc1`, the TGI is > 100 µM.

Another assay concerns SN12C renal. The experiment in a line: NCI-60 cell line screen, 48 h.
With `Fc1c(F)c(C(F)(F)F)c(F)c(F)c1N/N=C\c1c[nH]c2ccccc12`, the TGI is 11.8 µM.

Consider `COc1cc2c(/C=C3/C(=O)Nc4ccc(Cl)cc43)c(Cl)n(Cc3ccccc3)c2cc1C`, for which the TGI was 5.24 µM.

With `O=C(O)C(=C\c1ccc2c(c1)OCO2)/C(=C/c1ccc2c(c1)OCO2)C(=O)O`, the TGI was > 100 µM.

For `COc1ccc(-c2ccc(-c3ccc(C(=N)N)nc3)s2)cc1`, the GI50 was 1.83 µM and the TGI was 3.68 µM.

With `N#CC(C#N)=CN1CCN(C(=O)c2ccco2)C1=S`, the GI50 is 3.12 µM and the TGI amounted to 16.5 µM.

As to `COc1ccc2c(c1)CC[C@@H]1[C@@H]2CC[C@]2(C)C(=O)C3(CCCCC3)C[C@@H]12`, the GI50 was > 100 µM and the TGI was > 100 µM.

For the molecule `NS(=O)(=O)c1cc2c(cc1Cl)NC(C(=O)c1cc(=O)c3ccc(O)cc3o1)=NS2(=O)=O`, the TGI was > 100 µM.

Take `CC(=O)OCC(=O)[C@@]1(O)CC[C@H]2[C@@H]3CCC4=CC(=O)[C@H](C)C[C@]4(C)[C@H]3[C@@H](O)C[C@@]21C`: the TGI was > 100 µM.

`O=C(NO)c1ccc([N+](=O)[O-])cc1`: the TGI was > 100 µM.

As to `Cc1c(C#N)c2nnn(C)c(=O)n2c1-c1ccccc1`, the TGI is > 100 µM.

For another assay, the system named is SNB-75 CNS. As to the kind of experiment: NCI-60 cell line screen, 48 h.
With `Fc1c(F)c(C(F)(F)F)c(F)c(F)c1N/N=C\c1c[nH]c2ccccc12`, the TGI is 6.23 µM.

Molecule `COc1cc2c(/C=C3/C(=O)Nc4ccc(Cl)cc43)c(Cl)n(Cc3ccccc3)c2cc1C` yielded a TGI of 4.61 µM.

Take `O=C(O)C(=C\c1ccc2c(c1)OCO2)/C(=C/c1ccc2c(c1)OCO2)C(=O)O`: the TGI is > 100 µM.

For `COc1ccc(-c2ccc(-c3ccc(C(=N)N)nc3)s2)cc1`, the GI50 is 1.55 µM and the TGI worked out at 2.88 µM.

As for `N#CC(C#N)=CN1CCN(C(=O)c2ccco2)C1=S`, the GI50 is 40.6 µM and the TGI is > 100 µM.

As to `COc1ccc2c(c1)CC[C@@H]1[C@@H]2CC[C@]2(C)C(=O)C3(CCCCC3)C[C@@H]12`, the GI50 is > 100 µM and the TGI was > 100 µM.

On to `NS(=O)(=O)c1cc2c(cc1Cl)NC(C(=O)c1cc(=O)c3ccc(O)cc3o1)=NS2(=O)=O`, for which the TGI is > 100 µM.

`CC(=O)OCC(=O)[C@@]1(O)CC[C@H]2[C@@H]3CCC4=CC(=O)[C@H](C)C[C@]4(C)[C@H]3[C@@H](O)C[C@@]21C`: the TGI is > 100 µM.

`O=C(NO)c1ccc([N+](=O)[O-])cc1`: the TGI was found to be 93.8 µM.

As to `Cc1c(C#N)c2nnn(C)c(=O)n2c1-c1ccccc1`, the TGI was > 100 µM.

The test system of a further assay is UACC-257 melanoma. The experiment in a line: NCI-60 cell line screen, 48 h.
The molecule `Fc1c(F)c(C(F)(F)F)c(F)c(F)c1N/N=C\c1c[nH]c2ccccc12` came in with a TGI of 14.3 µM.

On to `COc1cc2c(/C=C3/C(=O)Nc4ccc(Cl)cc43)c(Cl)n(Cc3ccccc3)c2cc1C`, for which the TGI is > 100 µM.

As to `O=C(O)C(=C\c1ccc2c(c1)OCO2)/C(=C/c1ccc2c(c1)OCO2)C(=O)O`, the TGI was > 100 µM.

In the case of `COc1ccc(-c2ccc(-c3ccc(C(=N)N)nc3)s2)cc1`, the GI50 was 1.8 µM and the TGI stood at 3.51 µM.

Regarding `COc1ccc2c(c1)CC[C@@H]1[C@@H]2CC[C@]2(C)C(=O)C3(CCCCC3)C[C@@H]12`, the GI50 is 44.8 µM and the TGI was > 100 µM.

As to `NS(=O)(=O)c1cc2c(cc1Cl)NC(C(=O)c1cc(=O)c3ccc(O)cc3o1)=NS2(=O)=O`, the TGI is > 100 µM.

Regarding `CC(=O)OCC(=O)[C@@]1(O)CC[C@H]2[C@@H]3CCC4=CC(=O)[C@H](C)C[C@]4(C)[C@H]3[C@@H](O)C[C@@]21C`, the TGI was > 100 µM.

Regarding `O=C(NO)c1ccc([N+](=O)[O-])cc1`, the TGI was > 100 µM.

In the case of `Cc1c(C#N)c2nnn(C)c(=O)n2c1-c1ccccc1`, the TGI was > 100 µM.

The next assay relates to UACC-62 melanoma. As to the kind of experiment: NCI-60 cell line screen, 48 h.
Molecule `Fc1c(F)c(C(F)(F)F)c(F)c(F)c1N/N=C\c1c[nH]c2ccccc12` yielded a TGI of 10.5 µM.

In the case of `COc1cc2c(/C=C3/C(=O)Nc4ccc(Cl)cc43)c(Cl)n(Cc3ccccc3)c2cc1C`, the TGI came to 10.3 µM.

On to `O=C(O)C(=C\c1ccc2c(c1)OCO2)/C(=C/c1ccc2c(c1)OCO2)C(=O)O`, for which the TGI is > 100 µM.

As for `COc1ccc(-c2ccc(-c3ccc(C(=N)N)nc3)s2)cc1`, the GI50 was 1.81 µM and the TGI was 3.38 µM.

As for `N#CC(C#N)=CN1CCN(C(=O)c2ccco2)C1=S`, the GI50 was 8.81 µM and the TGI amounted to 25.4 µM.

Take `COc1ccc2c(c1)CC[C@@H]1[C@@H]2CC[C@]2(C)C(=O)C3(CCCCC3)C[C@@H]12`: the GI50 was > 100 µM and the TGI was > 100 µM.

`NS(=O)(=O)c1cc2c(cc1Cl)NC(C(=O)c1cc(=O)c3ccc(O)cc3o1)=NS2(=O)=O`: the TGI was > 100 µM.

For `CC(=O)OCC(=O)[C@@]1(O)CC[C@H]2[C@@H]3CCC4=CC(=O)[C@H](C)C[C@]4(C)[C@H]3[C@@H](O)C[C@@]21C`, the TGI was > 100 µM.

`O=C(NO)c1ccc([N+](=O)[O-])cc1`: the TGI stood at 50.5 µM.

As to `Cc1c(C#N)c2nnn(C)c(=O)n2c1-c1ccccc1`, the TGI was > 100 µM.
